Measurements: publication PMC11597167, “Evaluation of Selected Plant Phenolics via Beta-Secretase-1 Inhibition, Molecular Docking, and Gene Expression Related to Alzheimer’s Disease” (Pharmaceuticals, 2024)
Read-outs that look alike come from different tables or passages of the source.

How the values were obtained:
BACE1 = conditions: earlier study, cited from earlier work
BACT = experiment: RT-PCR gene expression in SH-SY5Y cells (reference gene); format: cell-based, human; conditions: 24 h at IC08, β-actin, the normalizing reference gene
Procedure: (§1) In the RNA isolation protocol, cell pellets were homogenized using 1 mL of TRIzol reagent and incubated for 5 min at room temperature. Chloroform (200 μL) was added, and the mixture was shaken vigorously and incubated for 3 min at room temperature. The mixture was then centrifuged at 10,000 rpm for 15 min at +4 °C, and the upper colorless phase was transferred to an RNase-free microcentrifuge tube. Isopropanol (500 μL) was added to the tube, and the mixture was incubated at room temperature for 10 min and centrifuged at 10,000 rpm for 10 min. The supernatant was removed, and the pellet was washed with at least 75% ethanol (1 mL) and centrifuged at 7500 rpm for 5 min at +4 °C. After removing all of the supernatant from the tube and air-drying the pellet, the RNA-containing pellet was dissolved in approximately 100 μL of nuclease-free water and incubated at 55 °C for 5 min. RNA was stored at -80 °C for long-term storage. cDNA synthesis was performed using the ABM, OneScript® Plus cDNA synthesis kit (Applied Biological Materials Inc. (abm), Richmond, BC, Canada). A mixture of RNA (2000 ng/μL), dNTPs (1 μL), oligo (dT) primer (1 μL), […], and up to 13 μL of nuclease-free water was prepared and incubated at 65 °C for 5 min as described in the protocol supplied with the kit. After incubating the mixture on ice for 1 min, 4 μL of 5X RT buffer and 1 μL of OneScript® Plus RTase were added to the tube. The mixture was incubated at 50 °C for 50 min and 85 °C for 5 min. cDNA was stored at -20 °C for long-term storage. Real-time PCR was performed using ABM, BlasTaqTM 2X qPCR MasterMix, and the CFX Connect real-time system. […] DMSO, the solvent for dissolving the phenolic compounds, was used as the control group. The Qiagen GeneGlobe Complimentary qPCR Data Analysis Portal (Redwood City, CA, USA), utilizing default parameters, was employed to calculate changes in gene expression. CT values were exported from the BioRad CFX Connect real-time qPCR system and normalized against a reference gene. The p-value was derived from a Student's t-test applied to the replicate 2^-ΔΔCT values for each gene in the comparisons between the control and test groups. The p-value calculation employed was derived from a parametric, unpaired, two-sample equal variance, two-tailed distribution, a method that is widely recognized in the scientific literature. Fold change calculations, representing gene expression ratios, were determined using the established ΔΔCT method as initially described by Livak and Schmittgen. […] Multiple groups were compared by ANOVA and Dunnet post hoc test.

[1] = tested on: SH-SY5Y human neuroblastoma cells; format: cell-based; conditions: 24 h
Procedure: SH-SY5Y, a human neuroblastoma cell line (purchased from ATCC®, Cat. No. CRL-2266™), was maintained in Dulbecco’s Modified Eagle Medium/Nutrient Mixture F-12 (DMEM/F-12) complemented with 10% heat-inactivated fetal bovine serum (FBS) and 1% penicillin–streptomycin after being processed for 30 min at 56 °C. Cells were cultivated in a sterile incubator at 37 °C with 5% CO2 and 95% relative humidity.
Cells were maintained in Dulbecco’s Modified Eagle’s Medium (DMEM)/nutrient mixture F-12 (DMEM/F-12) containing 1% penicillin–streptomycin supplemented with 10% fetal bovine serum (FBS) heat-inactivated at 56 °C for 30 min. Cells were cultured in a sterile incubator at 37 °C with 5% CO2 and 95% humidity. Then, 10,000 SH-SY5Y cells in 100 µL of complete medium were seeded in each well of a 96-well plate and incubated for 16–24 h for surface attachment. […] Then, 10 µL of filter-sterilized 0.015% resazurin solution (Sigma-Aldrich, R7017) was added to each well and incubated for 2 h at 37 °C with 5% CO2. Excitation at 560 nm wavelength and emission fluorescence at 590 nm wavelength were measured, and cell viability% was calculated compared to the control group.

human recombinant BACE1 = human recombinant BACE1 (Homo sapiens, UniProt P56817); experiment: biochemical; format: biochemical; conditions: n: 3; for BACE1 Inhibition (Inhibition% ± SD): 10 mM stock concentration; for IC50: BACE1
Procedure: Fluorescence resonance energy transfer (FRET) technology was used to measure the enzymatic activity of BACE1, and measurements were performed by modifying previously used methods and the protocol included in the manufacturer’s (PanVera® Corporation, Madison, […], USA) assay kit. […] The inhibition rate was obtained using the following equation:Inhibition% = [1 − (B − B0)/(K − K0)] × 100
• K0 = fluorescence value of the control group at minute 0 • K = fluorescence value of the control group at 60 min • B0 = fluorescence value of the test compound at minute 0 • B = fluorescence value of the test compound at 60 min

ABCA7 = experiment: RT-PCR gene expression in SH-SY5Y cells; format: cell-based, human; conditions: 24 h at IC08, vs DMSO control, normalized to β-actin
Procedure: as §1

TNF = experiment: RT-PCR gene expression in SH-SY5Y cells; format: cell-based, human; conditions: 24 h at IC08, vs DMSO control, normalized to β-actin
Procedure: as §1

CCL5 = experiment: RT-PCR gene expression in SH-SY5Y cells; format: cell-based, human; conditions: 24 h at IC08, vs DMSO control, normalized to β-actin
Procedure: as §1

CR1 = experiment: RT-PCR gene expression in SH-SY5Y cells; format: cell-based, human; conditions: 24 h at IC08, vs DMSO control, normalized to β-actin
Procedure: as §1

MMP9 = experiment: RT-PCR gene expression in SH-SY5Y cells; format: cell-based, human; conditions: 24 h at IC08, vs DMSO control, normalized to β-actin
Procedure: as §1

BIN1 = experiment: RT-PCR gene expression in SH-SY5Y cells; format: cell-based, human; conditions: 24 h at IC08, vs DMSO control, normalized to β-actin
Procedure: as §1

APOE = experiment: RT-PCR gene expression in SH-SY5Y cells; format: cell-based, human; conditions: 24 h at IC08, vs DMSO control, normalized to β-actin
Procedure: as §1

CLU = experiment: RT-PCR gene expression in SH-SY5Y cells; format: cell-based, human; conditions: 24 h at IC08, vs DMSO control, normalized to β-actin
Procedure: as §1

SORL1 = experiment: RT-PCR gene expression in SH-SY5Y cells; format: cell-based, human; conditions: 24 h at IC08, vs DMSO control, normalized to β-actin
Procedure: as §1

PICALM = experiment: RT-PCR gene expression in SH-SY5Y cells; format: cell-based, human; conditions: 24 h at IC08, vs DMSO control, normalized to β-actin
Procedure: as §1

CD33 = experiment: RT-PCR gene expression in SH-SY5Y cells; format: cell-based, human; conditions: 24 h at IC08, vs DMSO control, normalized to β-actin
Procedure: as §1

CD2AP = experiment: RT-PCR gene expression in SH-SY5Y cells; format: cell-based, human; conditions: 24 h at IC08, vs DMSO control, normalized to β-actin
Procedure: as §1

PSEN1 = experiment: RT-PCR gene expression in SH-SY5Y cells; format: cell-based, human; conditions: 24 h at IC08, vs DMSO control, normalized to β-actin
Procedure: as §1

APP = experiment: RT-PCR gene expression in SH-SY5Y cells; format: cell-based, human; conditions: 24 h at IC08, vs DMSO control, normalized to β-actin
Procedure: as §1

APP/PS1 transgenic mice = tested on: APP/PS1 transgenic mice; set-up: method as in PMID 32913125; conditions: 6 months at 20 mg/kg b.w.; cited from earlier work
[2] = read-out: IC50 (inhibitory effect against BACE1)
[3] = concentration with 8% inhibition (92% viability), SH-SY5Y, Mean ± SD

Sequence of human recombinant BACE1 (P56817 46-501): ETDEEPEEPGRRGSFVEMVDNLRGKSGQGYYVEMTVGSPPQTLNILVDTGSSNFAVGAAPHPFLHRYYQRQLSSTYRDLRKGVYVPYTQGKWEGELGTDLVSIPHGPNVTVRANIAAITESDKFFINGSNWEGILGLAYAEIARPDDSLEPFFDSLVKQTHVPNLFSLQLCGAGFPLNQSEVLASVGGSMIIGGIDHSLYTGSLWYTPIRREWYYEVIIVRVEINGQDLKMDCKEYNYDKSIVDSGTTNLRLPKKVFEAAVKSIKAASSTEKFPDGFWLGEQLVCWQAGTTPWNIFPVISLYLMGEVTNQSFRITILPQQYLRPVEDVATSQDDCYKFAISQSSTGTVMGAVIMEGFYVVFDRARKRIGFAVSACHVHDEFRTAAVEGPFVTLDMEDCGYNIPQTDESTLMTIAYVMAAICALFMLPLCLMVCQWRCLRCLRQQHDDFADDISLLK

Compound	IC50 (BACE1; [2])	Fold Regulation BACT (BACT)	IC08 Values [1, 3]	BACE1 Inhibition (Inhibition% ± SD) (human recombinant BACE1)	IC50 (human recombinant BACE1)	Fold Regulation ABCA7 (ABCA7)	Fold Regulation TNF (TNF)	Fold Regulation CCL5 (CCL5)	Fold Regulation CR1 (CR1)	Fold Regulation MMP9 (MMP9)	Fold Regulation BIN1 (BIN1)	Fold Regulation APOE (APOE)	Fold Regulation CLU (CLU)	Fold Regulation SORL1 (SORL1)	Fold Regulation PICALM (PICALM)	Fold Regulation CD33 (CD33)	Fold Regulation CD2AP (CD2AP)	Fold Regulation PSEN1 (PSEN1)	Fold Regulation APP (APP)	IC08 Values ([1]; human)	also measured
OCCc1ccc(O)c(O)c1 [3-Hydroxytyrosol, 3-hydroxytyrosol]	0.035 ± 0.04 µM	1.00	278 ± 12.21 µM	45.33 ± 0.22%	> 10000 µM	1.82	2.04	3.61	2.86	4.38	1.87	−1.17	1.15	1.81	1.21	2.88	1.36	−1.08	−1.07		BACE1 Inhibition (Inhibition% ± SD) (human recombinant BACE1; listed as 3-hydroxytyrosol): below 50%
O=C(O[C@@H]1Cc2c(O)cc(O)cc2O[C@@H]1c1cc(O)c(O)c(O)c1)c1cc(O)c(O)c(O)c1 [EGCG, epigallocatechin gallate]			103 ± 12.47 µM																		
O=C(O)c1cc(O)c(O)c(O)c1 [Gallic acid, 3,4,5-trihydroxybenzoic acid]		1.00	187 ± 7.11 µM	27.51 ± 2.97%		1.55	2.06	1.92	2.20	3.14	1.16	−1.07	−1.11	1.65	1.22	2.40	1.15	−1.11	1.15		BACE1 Inhibition (Inhibition% ± SD) (human recombinant BACE1; listed as gallic acid): below 50%; spatial reference learning and memory impairment (APP/PS1 transgenic mice): totally reversed
C/C=C1/[C@H](O[C@@H]2O[C@H](CO)[C@@H](O)[C@H](O)[C@H]2O)OC=C(C(=O)OC)[C@H]1CC(=O)OCCc1ccc(O)c(O)c1 [Oleuropein, oleuropein]	2.76 ± 0.23 µM	1.00		52.38 ± 2.08%	9870 ± 1010 µM	2.42	2.09	2.67	3.45	5.31	−1.14	−1.33	−1.78	1.90	1.43	3.88	1.31	−1.07	1.05	171 ± 22.01 µM	
O=c1c(O)c(-c2ccc(O)c(O)c2)oc2cc(O)cc(O)c12 [Quercetin, 3,3′,4′,5,7-pentahydroxyflavone, reference compound]			27 ± 5.30 µM	86.87 ± 4.48%																	
O=C(/C=C/c1ccc(O)c(O)c1)O[C@H](Cc1ccc(O)c(O)c1)C(=O)O [Rosmarinic acid, rosmarinic acid]		1.00		67.04 ± 0.64%	4060 ± 680 µM	−1.07	1.75	1.82	1.34	3.02	1.33	1.45	1.11	1.23	1.32	1.88	1.08	1.55	1.01	546 ± 31.55 µM	IC50 (BACE1; read-out: IC50 (BACE1 inhibitory potential)): 21 µM
